From patent US10160785B2, “Antimicrobial peptides and their use for the treatment of topical infections” (priority 2015, dated 2018)
Where a SMILES comes first, the peptide text is derived from it.

Assays:
Bacillus subtilis = conditions: Bacillus subtilis; 37° C., 20 h
Procedure, shortened: (§1)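 MIC broth microdilution, LB, ~10^5 CFU/well, peptide 0.1–100 μmol.l^−1 (twofold series). 37 °C, 20 h, continuous shaking; A540 every 15 min.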

Candida albicans Olomouc = conditions: Candida albicans Olomouc; YPD medium; 37° C., 20 h (Example 2)
[1] = system: Enterococcus faecalis Motol; conditions: BHI medium, 37° C., 20 h
Escherichia coli = conditions: 37° C., 20 h
Procedure, shortened: as §1

[2] = system: Methicillin resistant Staphylococcus aureus (MRSA) 6271; conditions: 37° C., 20 h
Procedure, shortened: as §1

Micrococcus luteus = conditions: Micrococcus luteus; 37° C., 20 h
Procedure, shortened: as §1

[3] = system: Pseudomonas aeruginosa 5482; conditions: 37° C., 20 h
Procedure, shortened: as §1

[4] = system: Pseudomonas aeruginosa Liberec; conditions: Pseudomonas aeruginosa Liberec; 37° C., 20 h
Procedure, shortened: as §1

[5] = system: Staphylococcus aureus Liberec; conditions: Staphylococcus aureus Liberec clinical isolate; 37° C., 20 h
Procedure, shortened: as §1

[6] = system: Staphylococcus aureus Motol; conditions: Staphylococcus aureus Motol clinical isolate; 37° C., 20 h
Procedure, shortened: as §1

[7] = system: Staphylococcus epidermidis Motol; conditions: 37° C., 20 h
Procedure, shortened: as §1

in vitro = conditions: human
Procedure, shortened: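 Peptides at 2-200 μmol.l^−1 incubated 1 h at 37 °C with 5% v/v human erythrocyte suspension in physiological solution. Released haemoglobin in supernatant read at 540 nm against buffer (0%) and 0.2% Triton X100 (100%) lysis controls. LC50 is the peptide concentration lysing 50% of cells.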

[8] = system: S. aureus (Liberec) biofilm; assay: Bacterial biofilm, remaining metabolic activity (MTT); type: cell-based, Staphylococcus aureus; conditions: remaining metabolic activity of biofilm, 20 h
Procedure, shortened: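 Biofilms of S. aureus or P. aeruginosa (Liberec) were grown 24 h at 37° C with shaking in BHI plus 1% glucose from ca. 10^8 CFU/ml inocula. After washing, biofilms were exposed 20 h to peptides at 1–128 μmol.l^−1. Surviving metabolic activity was measured by MTT (40 min, formazan in DMSO, A540) as percent of untreated biofilm, blank-corrected.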

In the case of `CCCC[C@H](NC(=O)[C@H](CC(C)C)NC(=O)[C@H](CO)NC(=O)[C@H](CO)NC(=O)[C@H](CCCC)NC(=O)[C@@H](NC(=O)CN)[C@@H](C)CC)C(=O)N[C@@H](CCCCN)C(=O)N[C@@H](CCCCN)C(=O)N[C@@H](CC(C)C)C(=O)N[C@@H](CCCCN)C(=O)N[C@@H](CCCCN)C(=O)N[C@H](C(=O)N[C@H](C(=O)N[C@@H](C)C(=O)N[C@@H](CCCCN)C(N)=O)[C@@H](C)CC)[C@@H](C)CC` [V] (HELM PEPTIDE1{G.I.[Nle].S.S.L.[Nle].K.K.L.K.K.I.I.A.K.[am]}$$$$V2.0), the “Antimicrobial activity MIC B. s.” value (Bacillus subtilis) is reported as 3.5 µM, the “Antimicrobial activity MIC C. a. Olomouc” value (Candida albicans Olomouc) is reported as 10.0 µM and the “Antimicrobial activity MIC E. f. Motol” value [1] is reported as 54.0 µM. For the same compound, the “Antimicrobial activity MIC E. c.” value (Escherichia coli) was 10.0 µM, the “Antimicrobial activity MIC S. a. 6271” value [2] was 12.7 µM and the “Antimicrobial activity MIC M. l.” value (Micrococcus luteus) was 1.6 µM. For the same compound, the “Antimicrobial activity MIC P. a. 5482” value [3] was 4.0 µM, the “Antimicrobial activity MIC P. a. Liberec” value [4] was 7.9 µM and the “Antimicrobial activity MIC S. a. Liberec” value [5] was 4.0 µM. For the same compound, the “Antimicrobial activity MIC S. a. Motol” value [6] was 6.7 µM, the “Antimicrobial activity MIC S. e. Motol” value [7] was 2.5 µM and the HC50 at 1 h (in vitro) was 373 µM. For the same compound, the “Metabolic activity (%) S. aureus (Liberec)” value ([8]; peptide concentration 8 μmol · l^−1) was 83.0%, the “Metabolic activity (%) S. aureus (Liberec)” value ([8]; peptide concentration 16 μmol · l^−1) was 71.0% and the “Metabolic activity (%) S. aureus (Liberec)” value ([8]; peptide concentration 32 μmol · l^−1) was 49.5%. For the same compound, the “Metabolic activity (%) S. aureus (Liberec)” value ([8]; peptide concentration 64 μmol · l^−1) was 26.0% and the “Metabolic activity (%) S. aureus (Liberec)” value ([8]; peptide concentration 128 μmol · l^−1) was 0.0%.
